The record followed here is patent US4256462A, “Method and composition for determination of n-nitrosamines” (University of Iowa Research Foundation, priority 1979, dated 1981).

A short description of this assay: Denitrosation reaction time, iodo vs bromo salts. The note with it: sodium iodide reagent. The source says: Particularly for the sodium iodide salt, the reaction will occur within one minute, whereas, when bromo salts are substituted, the reaction times are considerably longer, such as five minutes.

As to `[I-].[Na+]` [sodium iodide], the reaction time entry is on record as “one”.
